“Also recorded” adds a separate entry of the source. Non-standard residues stand in square brackets, D forms with d. Residues, ends and D or L forms follow the SMILES beside them. No end group written: not given here. hCys = N[C@@H](CCS)C(=O)O
Legend:
[1] = test system: metastatic DU-145 prostate cancer cells; assay: SU-ECM invasion assay, DU-145 cells; format: cell-based, human; details: for IC100: Homo sapiens, DU-145, read-out: concentration that completely (fully) inhibits the invasion of metastatic DU145 cells; for concentration that completely inhibits the invasion of metastatic DU145 cells: Example 10; for concentration that completely (fully) inhibits the invasion of metastatic DU145 cells: Example 11, Figure 7, molar basis; for inhibition of serum-induced invasion of DU-145 cells: Figure 4A; for inhibition of PHSRN-induced invasion of DU-145 cells: serum-free medium, 100 ng per ml PHSRN, Figure 4B
Description: (§1) Adult Strongylocentrotus purpuratus sea urchins were obtained from Pacific BioMarine, and their embryos were cultured to the early pluteus stage in artificial sea water at 15°C. SU-ECM were prepared from them by treatment with nonionic detergent and sterilized by dilution in the appropriate media.
(§2) […] When appropriate, purified bovine plasma fibronectin (Sigma, St. Louis, Mo), purified 120 kDa chymotryptic fragment (Gibco BRL), PHSRN or PHSCN peptides (synthesized at the Biomedical Research Core Facilities of the University of Michigan), or GRGDSP or GRGESP peptides (Gibco BRL) were added to the resuspended cells prior to placement of the cells on SU-ECM. In each well of a plate used for an invasion assay, SU-ECM were placed in 0.5 ml of the appropriate medium, and 0.5ml of the resuspended cells dropped on their exterior surfaces. Invasion assays were incubated 1 to 16 hours prior to scoring. If some circumstances, invasion assays were fixed in phosphate-buffered saline (PBS) with 2% formaldehyde for 5 minutes at room temperature, then rinsed into PBS.
(§3) Invasion assays were coded and scored blindly by microscopic examination under phase contrast at 200- and 400-fold magnification. Each cell contacting an SU-ECM was scored for its position relative to the exterior or interior surfaces. A cell was judged to have invaded if it was located on an interior surface below the focal plane passing through the upper surface of the SU-ECM, but above the focal plane passing through its lower surface. The minimum viability of the cells in each assay was always ascertained at the time of assay by determining the fraction of spread, adherent cells on the bottom of each well scored.
(§4) An invasion frequency is defined as the fraction of cells in contact with basement membranes which were located in their interiors at the time of assay. Thus, an invasion frequency of 1 denotes invasion by 100% of the cells in contact with basement membranes. Invasion frequencies were determined multiple times for each cell type assayed. For each type of cell assayed the mean and standard deviation of the invasion frequencies were calculated.
(§5) The method of Example 4 is employed, with the addition of varying concentrations of the PHSCN peptide.
(§6) Thus, the procedure in Example 4 provides a method for determining the inhibitory potential of the PHSCN peptide by comparing the number of cell invasions in the presence of the PHSCN peptide, with the number of cell invasions in the absence of the PHSCN peptide.
In this example, in vitro invasion of cancer cells into substrates is inhibited with peptides that have been chemically modified with protecting groups and peptides having protecting groups as well as the modification wherein an L-amino acid has been replaced with the D-isomer. PHSCN peptide, blocked PHSCN peptide, and blocked PHSCN peptide with a D-cysteine instead of the L-isomer, were tested (Figure 4A, 4B).
In this example, in vitro invasion of cancer cells into substrates is inhibited with non-peptide mimetics in comparison with chemically modified peptides (on a molar basis). The peptides of Example 10 (i.e. peptides chemically modified with protecting groups and peptides having protecting groups as well as the modification wherein an L-amino acid has been replaced with the D-isomer) were compared with the non-peptide mimetics DL-N-Acetylhomocysteinethiolactone, Thiobutyrolactone, and Mercaptopropionic acid, in order to investigate the structure activity relationship for invasion inhibition by interaction with the PHSRN-binding pocket of the α5β1 fibronectin receptor (Figure 7)

neonatal fibroblasts = assay: SU-ECM invasion assay, neonatal fibroblasts; format: cell-based, human; details: in the presence (10% FCS) or absence of serum; molar concentration equivalent to plasma fibronectin in serum; Figure 9
Excerpt: In one example cells for the invasion assay are harvested by rinsing in Hanks' balanced salt solution, followed by brief treatment with 0.25% trypsin, 0.02% EDTA, and pelleting and resuspension in the appropriate medium with or without 5% FCS at a density of about 50,000 cells per ml. When appropriate, purified bovine plasma fibronectin (from Sigma, St. Louis, Mo), purified 120 kDa chymotryptic fragment (Gibco BRL) or PHSRN peptides (synthesized at the Biomedical Research Core Facilities of the University of Michigan) are added to the resuspended cells prior to placement of the cells on SU-ECM. In each well of a plate used for an invasion assay, SU-ECM were placed in 0.5 ml of the appropriate medium, and 0.5ml of the resuspended cells dropped on their exterior surfaces. Invasion assays were incubated 1 to 16 hours prior to assay. If some circumstances, invasion assays were fixed in phosphate-buffered saline (PBS) with 2% formaldehyde for 5 minutes at room temperature, then rinsed into PBS.
as §3, with “are” for “were”, “is” for “was”
as §4, with “membranes which are located in” for “membranes which were located in”, “Invasion frequencies are determined multiple” for “Invasion frequencies were determined multiple”
In this example, the invasiveness of neonatal fibroblasts into an SU-ECM invasion substrate is considered. Experiments were performed under serum-free conditions, or in medium with 10% fetal calf serum (FCS). Neither serum-free medium nor medium containing serum supported fibroblast invasion. However, consistent with the induction of metalloproteinase gene transcription by the 120 kDa fragment of plasma fibronectin (pFn) containing the cell-binding domain, the 120 kDa fragment induced fibroblast invasion in the presence or in the absence of serum. […]

[2] = test system: rat metastatic prostate carcinoma MatLyLu (MLL) cells; assay: SU-ECM invasion assay, MatLyLu cells; format: cell-based; details: 10% FCS, Figure 5
Description: as §1
[…] When appropriate, purified bovine plasma fibronectin (Sigma, St. Louis, Mo), purified 120 kDa chymotryptic fragment (Gibco BRL), PHSRN or PHSCN peptides (synthesized at the Biomedical Research Core Facilities of the University of Michigan), or GRGDSP or GRGESP peptides (Gibco BRL) were added to the resuspended cells prior to placement of the cells on SU-ECM. […]
as §3, with “A cell was judged to have invaded if it was located on an interior surface below the focal plane passing through the upper surface of the SU-ECM, but above the focal plane passing through its lower surface.” left out
An invasion frequency is defined as the fraction of cells in contact with basement membranes which were located in their interiors at the time of assay. […] Invasion frequencies were determined multiple times for each cell type assayed. […]

[3] = test system: normal human mammary epithelial cells; assay: SU-ECM invasion assay, normal mammary epithelial cells; format: cell-based; details: 10% FCS, 100 ng per ml PHSRN, Figure 3B
Description: as §1, §2, §3
as §4, with “Thus, an invasion frequency of 1 denotes invasion by 100% of the cells in contact with basement membranes.” left out, “calculated. […]” for “calculated.”

[4] = test system: metastatic SUM-52 PE breast cancer cells; assay: SU-ECM invasion assay, SUM-52 PE cells; format: cell-based, human; details: for inhibition of serum-induced invasion of SUM-52 PE cells: medium with 5% serum, Figure 3A; for inhibition of PHSRN-induced invasion of SUM-52 PE cells: serum free media, 100 ng per ml PHSRN, Figure 3B
Description: as §1
Cells were harvested by rinsing in Hanks balanced salt solution, followed by brief treatment with 0.25% trypsin, 0.02% EDTA, and pelleting and resuspension in the appropriate medium with or without 5% FCS at a density of about 50,000 cells per ml. When appropriate, purified bovine plasma fibronectin (Sigma, St. Louis, Mo), purified 120 kDa chymotryptic fragment (Gibco BRL), PHSRN or PHSCN peptides (synthesized at the Biomedical Research Core Facilities of the University of Michigan), or GRGDSP or GRGESP peptides (Gibco BRL) were added to the resuspended cells prior to placement of the cells on SU-ECM. In each well of a plate used for an invasion assay, SU-ECM were placed in 0.5 ml of the appropriate medium, and 0.5ml of the resuspended cells dropped on their exterior surfaces. Invasion assays were incubated 1 to 16 hours prior to scoring. If some circumstances, invasion assays were fixed in phosphate-buffered saline (PBS) with 2% formaldehyde for 5 minutes at room temperature, then rinsed into PBS.
as §3, §4, §5, §6

[5] = test system: normal human prostate epithelial cells; assay: SU-ECM invasion assay, normal prostate epithelial cells; format: cell-based; details: 10% FCS, 100 ng per ml PHSRN, Figure 4B
Description: as §1, §2, §3
as §4, with “Thus, an invasion frequency of 1 denotes invasion by 100% of the cells in contact with basement membranes.” left out, “calculated. […]” for “calculated.”

[6] = DU145 invasion inhibition, 10% serum

CC(=O)NC1CCSC1=O (racemic) [DL-N-Acetylhomocysteinethiolactone]
fold less active than blocked PHSCN [1, 6]: about 10 fold
fold more active than the unblocked PHSCN peptide [1, 6]: about 3 fold
IC100 [1]: 0.6 µM

CC(=O)N1CCC[C@H]1C(=O)N[C@@H](Cc1c[nH]cn1)C(=O)N[C@@H](CO)C(=O)N[C@H](CS)C(=O)N[C@@H](CC(N)=O)C(N)=O [Ac-PHS(dC)N-NH2] (Ac-PHS[dC]N-NH2)
invasion-inhibitory activity compared with Ac-PHSCN-NH2 ([1]; DU145 cells, medium with 10% serum, D-isomer of cysteine substituted): further increases the invasion-inhibitory activity; also recorded: further increases very substantially the invasion-inhibitory activity

N=C(N)NCCC[C@H](NC(=O)CN)C(=O)NCC(=O)N[C@@H](CC(=O)O)C(=O)N[C@@H](CO)C(=O)O [GRGDS, reference compound]
induction of fibroblast invasion of SU-ECM (neonatal fibroblasts): no detectable activity

O=C(O)CCS [Mercaptopropionic acid]
times less active in invasion inhibition than thiobutyrolactone [1, 6]: at least 100 times
times less active than the unblocked PHSCN peptide [1, 6]: ≥ 1500 times
reduction of DU145 invasion ([1]; at any of the concentrations tested, 10% serum): ≤ 20%

NC(=O)C[C@H](NC(=O)[C@H](CCS)NC(=O)[C@H](CO)NC(=O)[C@H](Cc1c[nH]cn1)NC(=O)[C@@H]1CCCN1)C(=O)O [PHS(hC)N] (H-PHS[hCys]N-OH)
inhibition of serum-induced invasion of MLL cells ([2]; higher concentrations): completely inhibits invasion
inhibition of serum-induced invasion of MLL cells ([2]; lower concentrations): substantially inhibits invasion

O=C1CCCS1 [Thiobutyrolactone]
fold less active than N-acetylhomocysteinethiolactone [1, 6]: 50 fold
fold less active than blocked PHSCN [1, 6]: about 500 fold
times less active than the unblocked PHSCN peptide [1, 6]: 15 times
IC100 [1]: 30 µM

Ac-PHSCN-NH2 [Ac-PHSCN-NH2]
concentration that completely inhibits the invasion of metastatic DU145 cells ([1]; medium with 10% serum): approximately 1.3 ng/ml
concentration that completely (fully) inhibits the invasion of metastatic DU145 cells ([1]; medium with 10% serum): approximately 0.06 µM

PHSCN [PHSCN]
inhibition of serum-induced invasion of DU-145 cells ([1]; 10% serum, relatively high concentrations): complete inhibition
inhibition of serum-induced invasion of DU-145 cells ([1]; 10% serum, relatively low concentrations): substantial inhibitory affect
concentration that completely inhibits the invasion of metastatic DU145 cells ([1]; medium with 10% serum): 3 ng/mL
concentration that completely (fully) inhibits the invasion of metastatic DU145 cells ([1]; medium with 10% serum): approximately 2 µM
inhibition of PHSRN-induced invasion of DU-145 cells ([1]; higher concentrations): almost complete inhibition
inhibition of PHSRN-induced invasion of DU-145 cells ([1]; low concentrations): substantial inhibitory affect
inhibition of PHSRN-induced invasion of normal human mammary epithelial cells ([3]; higher concentrations): almost complete inhibition
inhibition of PHSRN-induced invasion of normal human mammary epithelial cells ([3]; low concentrations): substantial inhibitory affect
inhibition of serum-induced invasion of SUM-52 PE cells ([4]; relatively high concentrations): complete inhibition
inhibition of serum-induced invasion of SUM-52 PE cells ([4]; relatively low concentrations): substantial inhibitory affect
inhibition of PHSRN-induced invasion of SUM-52 PE cells ([4]; higher concentrations): almost complete inhibition
inhibition of PHSRN-induced invasion of SUM-52 PE cells ([4]; low concentrations): substantial inhibitory affect
inhibition of PHSRN-induced invasion of normal human prostate epithelial cells ([5]; higher concentrations): almost complete inhibition
inhibition of PHSRN-induced invasion of normal human prostate epithelial cells ([5]; low concentrations): substantial inhibitory affect

Reference: patent publication EP1388013B1, “COMPOSITIONS AND METHODS FOR THE USE OF FIBRONECTIN FRAGMENTS IN THE DIAGNOSIS OF CANCER” (THE REGENTS OF THE UNIVERSITY OF MICHIGAN, priority 2001, dated 2002)
